Test results published in US9073961B2, “Substitution derivatives of N6 -benzyladenosine-5′-monophosphate, methods of preparation thereof, use thereof as medicaments, and therapeutic preparations containing these compounds” (UNIVERZITA PALACKEHO V OLOMOUCI, priority 2010, dated 2015).

Tests used:
[1] = tested on: HL-60 (promyelocytic leukemia); test: Calcein AM cytotoxicity assay, HL60; format: cell-based, human; settings: 72 hours incubation
Source text: (§1) Because toxic compounds negatively influence metabolic processes in cells, many standard cytotoxicity assays are based on measurement of metabolisation rate of various artificial substrates. Resulting product is then quantified e.g. by means of spectrometry. The assays can be easily modified for use in 96-well plates. For evaluation of cytotoxic effect of the novel substituted 9-substituted cytokinin derivatives of this invention, a microtiter assay based on quantification of metabolisation of Calcein AM was used. The assay is widely used in drug screening programs and in chemosensitivity testing. In the living cells, Calcein AM is enzymatically hydrolysed and accumulation of resulting calcein is manifested by green fluorescence.
(§2) In the routine screening the following cell lines have been used: CEM (T-lymphoblastoid leukemia), HL-60 (promyelocytic leukemia), K-562 (human erythroleukemia), MCF-7 (breast carcinoma), HOS (human osteogenic sarcoma), and G-361 (human malignant melanoma). Normal human fibroblasts BJ were used as a control for routine screening of the compounds. The cells were kept in Nunc/Corning 80 cm^2 plastic bottles and grown in cell culture medium (DMEM containing 5 g/l glucose, 2 mM glutamine, 100 U/ml penicilline, 100 μg/ml streptomycine, 10% fetal bovine serum and sodium hydrogencarbonate), the compounds were prepared according to the procedure of the present invention.
(§3) The cell suspensions were prepared and diluted according to the particular cell type and the expected target cell density (2.500-30.000 cells per well based on cell growth characteristics) and pippetted (80 μl) into 96-well plates. Inoculates were allowed a pre-incubation period of 24 hours at 37° C. and 5% CO2 for stabilisation. Tested compound was added in total volume of 20 μl of water at time zero. Usually, test compound was evaluated at six 3-fold dilutions. In routine testing, the highest concentration tested was 166.7 μM. All drug concentrations were tested in triplicates. Incubations of cells with the test compounds lasted for 72 hours at 37° C., in 5% CO2 atmosphere and 100% humidity. At the end of incubation period Calcein AM in PBS was added into final concentration of 1 μg/ml. After another 1 hour of incubation fluorescence (FD) was measured with the Labsystem FIA Reader Fluoroscan Ascent (Microsystems). Tumor cell survival (TCS) was estimated using the following equation: […]=(FDdrug exposed well/FDcontrol well)×100%. The GI50 value, the drug concentration causing 50% reduction of esterase activity, was calculated from the obtained dose response curves (FIG. 1).
(§4) Cytoxicity of novel compounds was tested on panel of cell lines of different histogenetic and species origin (Table 3). […] The effective novel derivatives killed tumour cells in concentrations close to 0.1-50 μM.

[2] = tested on: CEM (T-lymphoblastoid leukemia); test: Calcein AM cytotoxicity assay, CEM; format: cell-based; settings: 72 hours incubation, Calcein AM
Source text: as §1, §2, §3, §4

[3] = tested on: HOS (human osteogenic sarcoma); test: Calcein AM cytotoxicity assay, HOS; format: cell-based; settings: 72 hours incubation
Source text: as §1, §2, §3, §4

[4] = tested on: K-562 (human erythroleukemia); test: Calcein AM cytotoxicity assay, K-562; format: cell-based; settings: 72 hours incubation
Source text: as §1, §2, §3, §4

[5] = tested on: Normal human fibroblasts BJ; test: Calcein AM cytotoxicity assay, BJ; format: cell-based; settings: 72 hours incubation
Source text: as §1, §2, §3, §4

MCF-7 (breast carcinoma) = test: Calcein AM cytotoxicity assay, MCF7; format: cell-based; settings: 72 hours incubation
Source text: as §1, §2, §3, §4

[6] = tested on: cytokinin-dependent tobacco callus Nicotiana tabacum L. cv. Wisconsin 38; test: Growth of cytokinin-dependent tobacco callus; format: cell-based; settings: for Activity (%) [10^−5 mol · l^−1 KR = 100%]: at concentration with highest activity, relative to control cytokinin; for Concentration with highest activity: tobacco callus fresh weight after four weeks
Experimental: Cytokinin effect of newly prepared derivatives was tested using cytokinin-dependent tobacco callus. The cytokinin-dependent tobacco callus Nicotiana tabacum L. cv. Wisconsin 38 was maintained at 25° C. in darkness on modified MS medium, containing per 1 liter: 4 μmol of nicotinic acid, 2.4 μmol of pyridoxine hydrochloride, 1.2 μmol of thiamine, 26.6 μmol of glycine, 1.37 μmol of glutamine, 1.8 μmol of myo-inositol, 30 g of sucrose, 8 g of agar, 5.37 μmol of NAA and 0.5 μmol of the compound tested. Subcultivation was carried out every three weeks. Fourteen days before the bioassay, the callus tissue was transferred to the media without 6-benzylaminopurine. The biological activity was determined from the increase of the fresh callus weight after four weeks of cultivation. Five replicates were prepared for each concentration of the compound tested and the entire test was repeated twice. […] The compounds to be tested were dissolved in dimethylsulfoxide (DMSO) and the solution brought up to 10^−3 M with distilled water. […] The stimulatory activity was calculated from the dose-dependent fresh weight callus growth curves.
From the obtained data, the concentration with the highest activity was selected for each compound tested. Relative activity of the compound at this concentration was calculated (Table 5). […]

Row | SMILES | GI50 [1] [µM] | GI50 [2] [µM] | GI50 [3] [µM] | GI50 [4] [µM] | GI50 [5] [µM] | GI50 (MCF-7 (breast carcinoma)) [µM] | Activity (%) [10^−5 mol · l^−1 KR = 100%] [6] [%] | Concentration with highest activity [6]
1 | O=P(O)(O)OC[C@H]1O[C@@H](n2cnc3c(NCc4ccc(Cl)c(Cl)c4)ncnc32)[C@H](O)[C@@H]1O [Compound 25, 6-(3,4-dichlorobenzylamino)purine riboside-5-monophosphate] | 1.1 | 3 | > 167 | 6.5 | > 167 | 88.8 | – | –
2 | COc1ccc(CNc2ncnc3c2ncn3[C@@H]2O[C@H](COP(=O)(O)O)[C@@H](O)[C@H]2O)c(OC)c1 [Compound 32, 6-(2,4-dimethoxybenzylamino)purine riboside-5′-monophosphate] | 39 | > 167 | > 167 | > 167 | > 167 | > 167 | – | –
3 | O=P(O)(O)OC[C@H]1O[C@@H](n2cnc3c(NCc4ccc(F)c(F)c4F)ncnc32)[C@H](O)[C@@H]1O [Compound 38, 6-(2,3,4-trifluorobenzylamino)purine riboside-5′-monophosphate] | 13 | 58.2 | > 167 | > 167 | > 167 | > 167 | – | –
4 | O=P(O)(O)OC[C@H]1O[C@@H](n2cnc3c(NCc4cc(F)cc(F)c4)ncnc32)[C@H](O)[C@@H]1O [Compound 37, 6-(3,5-difluorobenzylamino)purine riboside-5′-monophosphate] | 9.1 | 24.5 | > 167 | > 167 | > 167 | > 167 | 105 ± 3 | 10^−6 mol · l^−1
5 | O=P(O)(O)OC[C@H]1O[C@@H](n2cnc3c(NCc4ccc(F)cc4Cl)ncnc32)[C@H](O)[C@@H]1O [2-chloro-4-fluorobenzylamino, 6-(2-chloro-4-fluorobenzylamino)purine riboside-5′-monophosphate] | 9 | 20.9 | > 167 | 11.7 | > 167 | > 167 | 108 ± 4 | 10^−5 mol · l^−1
6 | O=P(O)(O)OC[C@H]1O[C@@H](n2cnc3c(NCc4cc(F)c(F)cc4F)ncnc32)[C@H](O)[C@@H]1O [Compound 39, 6-(2,4,5-trifluorobenzylamino)purine riboside-5′-monophosphate] | – | – | – | – | – | – | 105 ± 3 | 10^−5 mol · l^−1
7 | O=P(O)(O)OC[C@H]1O[C@@H](n2cnc3c(NCc4cccc(Br)c4)ncnc32)[C@H](O)[C@@H]1O [Compound 8, 6-(3-bromoobenzylamino)purine riboside-5′-monophosphate] | 8 | 5 | > 167 | 19.7 | > 167 | > 167 | 102 ± 11 | 10^−6 mol · l^−1
8 | O=P(O)(O)OC[C@H]1O[C@@H](n2cnc3c(NCc4c(F)ccc(F)c4F)ncnc32)[C@H](O)[C@@H]1O [Compound 40, 6-(2,3,6-trifluorobenzylamino)purine riboside-5′-monophosphate] | 13 | – | > 167 | > 167 | > 167 | > 167 | – | –
9 | O=P(O)(O)OC[C@H]1O[C@@H](n2cnc3c(NCc4ccccc4Br)ncnc32)[C@H](O)[C@@H]1O [Compound 7, 6-(2-bromobenzylamino)purine riboside-5′-monophosphate] | 6.6 | 12.3 | > 167 | 10 | > 167 | > 167 | 100 ± 4 | 10^−5 mol · l^−1
10 | COc1ccc(CNc2ncnc3c2ncn3[C@@H]2O[C@H](COP(=O)(O)O)[C@@H](O)[C@H]2O)cc1O [Compound 30, 6-(3-hydroxy-4-methoxybenzylamino)purine riboside-5′-monophosphate] | 68.9 | 79.3 | > 167 | > 167 | > 167 | > 167 | – | –
11 | COc1cc(CNc2ncnc3c2ncn3[C@@H]2O[C@H](COP(=O)(O)O)[C@@H](O)[C@H]2O)cc(OC)c1 [Compound 34, 6-(3,5-dimethoxybenzylamino)purine riboside-5′-monophosphate] | 18.8 | – | > 167 | > 167 | > 167 | > 167 | – | –
12 | O=P(O)(O)OC[C@H]1O[C@@H](n2cnc3c(NCc4ccc(F)cc4F)ncnc32)[C@H](O)[C@@H]1O [Compound 36, 6-(2,4-difluorobenzylamino)purine riboside-5-monophosphate] | 3.4 | 7.1 | > 167 | 7.4 | > 167 | > 167 | – | –
13 | O=P(O)(O)OC[C@H]1O[C@@H](n2cnc3c(NCc4ccc(F)c(Cl)c4)ncnc32)[C@H](O)[C@@H]1O [Compound 41, 6-(3-chloro-4-fluorobenzylamino)purine riboside-5′-monophosphate] | 3.5 | 3.4 | > 167 | 4.1 | > 167 | > 167 | 107 ± 4 | 10^−6 mol · l^−1
14 | O=P(O)(O)OC[C@H]1O[C@@H](n2cnc3c(NCc4ccc(Cl)cc4Cl)ncnc32)[C@H](O)[C@@H]1O [Compound 24, 6-(2,4-dichlorobenzylamino)purine riboside-5′-monophosphate] | 96.3 | 86.7 | > 167 | 85.7 | > 167 | 127 | – | –
15 | COc1cccc(CNc2ncnc3c2ncn3[C@@H]2O[C@H](COP(=O)(O)O)[C@@H](O)[C@H]2O)c1OC [Compound 31, 6-(2,3-dimethoxybenzylamino)purine riboside-5′-monophosphate] | 109 | > 167 | > 167 | > 167 | > 167 | > 167 | – | –
16 | O=P(O)(O)OC[C@H]1O[C@@H](n2cnc3c(NCc4ccc(Br)cc4)ncnc32)[C@H](O)[C@@H]1O [Compound 9, 6-(4-bromobenzylamino)purine riboside-5′-monophosphate] | 47.7 | 20.6 | > 167 | 68.2 | > 167 | > 167 | – | –
